Data taken from publication PMC13539321 (Journal of Advanced Research, 2025).

Target: Mushroom TYR (EC 1.14.18.1) (Agaricus bisporus, UniProt C7FF04)
Experiment: biochemical
Settings: IC50 value ± SD
[1] = L-dopa, substrate L-dopa (diphenolase), n = 3, screening of de novo generated compounds (Table 1)
[2] = L-tyrosine, substrate L-tyrosine (monophenolase), n = 3, screening of de novo generated compounds (Table 1)

Mushroom TYR (EC 1.14.18.1), sequence (C7FF04 1-392 limits assumed): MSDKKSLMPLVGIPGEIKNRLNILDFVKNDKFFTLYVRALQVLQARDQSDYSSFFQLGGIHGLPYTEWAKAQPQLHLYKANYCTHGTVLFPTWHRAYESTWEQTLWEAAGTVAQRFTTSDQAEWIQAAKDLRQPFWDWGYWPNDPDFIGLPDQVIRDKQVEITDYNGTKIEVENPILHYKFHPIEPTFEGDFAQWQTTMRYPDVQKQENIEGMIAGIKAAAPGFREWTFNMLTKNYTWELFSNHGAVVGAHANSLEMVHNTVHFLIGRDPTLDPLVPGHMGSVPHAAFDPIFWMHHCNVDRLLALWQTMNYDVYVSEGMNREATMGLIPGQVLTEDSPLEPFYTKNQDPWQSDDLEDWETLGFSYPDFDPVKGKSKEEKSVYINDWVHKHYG

Compound: COc1cc(C(=O)N[C@@H](Cc2ccccc2)C(N)=O)ccc1O [Compound I, (S)-N-(1-amino-1-oxo-3-phenylpropan-2-yl)-4-hydroxy-3-methoxybenzamide]
- IC50 [1]: > 800 µM
- IC50 [2]: > 800 µM

Compound: O=C(CCc1cccc(O)c1)N1CCN(Cc2ccccc2F)CC1 [Compound V-1, 1-(4-(2-fluorobenzyl)piperazin-1-yl)-3-(3-hydroxyphenyl)propan-1-one]
- IC50 (L-dopa): > 800 µM
- IC50 (L-tyrosine): 204 ± 3.9 µM

Compound: O=C(CCc1cccc(O)c1)N1CCN(Cc2cccc(F)c2)CC1 [Compound V-2, 1-(4-(3-fluorobenzyl)piperazin-1-yl)-3-(3-hydroxyphenyl)propan-1-one]
- IC50 (L-dopa): > 400 µM
- IC50 (L-tyrosine): 295 ± 24.2 µM

Compound: O=C(CCc1ccccc1O)N1CCN(Cc2ccc(F)cc2)CC1 [Compound V-3, 1-(4-(4-fluorobenzyl)piperazin-1-yl)-3-(2-hydroxyphenyl)propan-1-one]
- IC50 (L-dopa): 66.1 ± 4.6 µM
- IC50 (L-tyrosine): 60.6 ± 4.5 µM

Compound: O=C(CCc1ccc(O)cc1)N1CCN(Cc2ccc(F)cc2)CC1 [Compound V-4, 1-(4-(4-fluorobenzyl)piperazin-1-yl)-3-(4-hydroxyphenyl)propan-1-one]
- IC50 (L-dopa): 26.1 ± 4.6 µM
- IC50 (L-tyrosine): 2.9 ± 0.1 µM

Compound: O=C(/C=C/c1cccc(O)c1)N1CCN(Cc2ccc(F)cc2)CC1 [Compound V-5, (E)-1-(4-(4-fluorobenzyl)piperazin-1-yl)-3-(3-hydroxyphenyl)prop-2-en-1-one]
- IC50 (L-dopa): > 200 µM
- IC50 (L-tyrosine): 148 ± 25.4 µM

Compound: O=C(CCc1cccc(O)c1)N1CCCN(Cc2ccc(F)cc2)CC1 [Compound V-6, 1-(4-(4-fluorobenzyl)-1,4-diazepan-1-yl)-3-(3-hydroxyphenyl)propan-1-one]
- IC50 (L-dopa): 296 ± 7.9 µM
- IC50 (L-tyrosine): 88.9 ± 2.9 µM

Compound: O=C(CCc1cccc(O)c1)N1CC2CN(Cc3ccc(F)cc3)CC2C1 (stereo not drawn) [Compound V-7, 1-(5-(4-fluorobenzyl)hexahydropyrrolo[3,4-c]pyrrol-2(1H)-yl)-3-(3-hydroxyphenyl)propan-1-one]
- IC50 (L-dopa): 119 ± 5.2 µM
- IC50 (L-tyrosine): 25.8 ± 1.1 µM

Compound: O=C(CCc1cccc(O)c1)NCCNCc1ccc(F)cc1 [Compound V-8, N-(2-((4-fluorobenzyl)amino)ethyl)-3-(3-hydroxyphenyl)propanamide]
- IC50 (L-dopa): > 800 µM
- IC50 (L-tyrosine): 298 ± 16.6 µM

Compound: O=C(CCc1cccc(O)c1)NCCCNCc1ccc(F)cc1 [Compound V-9, N-(3-((4-fluorobenzyl)amino)propyl)-3-(3-hydroxyphenyl)propanamide]
- IC50 (L-dopa): > 800 µM
- IC50 (L-tyrosine): 328 ± 4.9 µM

Compound: O=C(CCc1cccc(O)c1)N1CCN(Cc2cccc(Cl)c2)CC1 [Compound V-10, 1-(4-(3-chlorobenzyl)piperazin-1-yl)-3-(3-hydroxyphenyl)propan-1-one]
- IC50 (L-dopa): 19 ± 2.2 µM
- IC50 (L-tyrosine): 7.4 ± 0.4 µM

Compound: Cc1ccc(CN2CCN(C(=O)CCc3cccc(O)c3)CC2)cc1 [Compound V-11, 3-(3-hydroxyphenyl)-1-(4-(4-methylbenzyl)piperazin-1-yl)propan-1-one]
- IC50 (L-dopa): > 400 µM
- IC50 (L-tyrosine): 20.1 ± 0.7 µM

Compound: CCc1ccc(CN2CCN(C(=O)CCc3cccc(O)c3)CC2)cc1 [Compound V-12, 1-(4-(4-ethylbenzyl)piperazin-1-yl)-3-(3-hydroxyphenyl)propan-1-one]
- IC50 (L-dopa): > 800 µM
- IC50 (L-tyrosine): > 800 µM

Compound: COc1ccc(CN2CCN(C(=O)CCc3cccc(O)c3)CC2)cc1 [Compound V-13, 3-(3-hydroxyphenyl)-1-(4-(4-methoxybenzyl)piperazin-1-yl)propan-1-one]
- IC50 (L-dopa): 103 ± 5.6 µM
- IC50 (L-tyrosine): 132 ± 5.4 µM

Compound: N#Cc1ccc(CN2CCN(C(=O)CCc3cccc(O)c3)CC2)cc1 [Compound V-14, 4-((4-(3-(3-hydroxyphenyl)propanoyl)piperazin-1-yl)methyl)benzonitrile]
- IC50 (L-dopa): 72.6 ± 3.1 µM
- IC50 (L-tyrosine): 83.2 ± 3.2 µM

Compound: O=C(CCc1cccc(O)c1)N1CCN(C/C=C/c2ccc(F)cc2)CC1 [Compound V-15, (E)-1-(4-(3-(4-fluorophenyl)allyl)piperazin-1-yl)-3-(3-hydroxyphenyl)propan-1-one]
- IC50 (L-dopa): 140 ± 15.6 µM
- IC50 (L-tyrosine): 41.8 ± 3.2 µM

Compound: O=C(CCc1cccc(O)c1)N1CCN(CCc2ccccc2)CC1 [Compound V-16, 3-(3-hydroxyphenyl)-1-(4-phenethylpiperazin-1-yl)propan-1-one]
- IC50 (L-dopa): > 800 µM
- IC50 (L-tyrosine): > 300 µM

Compound: O=C(CCc1cccc(O)c1)N1CCN(Cc2ccco2)CC1 [Compound V-17, 1-(4-(furan-2-ylmethyl)piperazin-1-yl)-3-(3-hydroxyphenyl)propan-1-one]
- IC50 (L-dopa): > 800 µM
- IC50 (L-tyrosine): > 600 µM

Compound: O=C(CCc1cccc(O)c1)N1CCN(Cc2cccs2)CC1 [Compound V-18, 3-(3-hydroxyphenyl)-1-(4-(thiophen-2-ylmethyl)piperazin-1-yl)propan-1-one]
- IC50 (L-dopa): > 800 µM
- IC50 (L-tyrosine): > 300 µM

Compound: O=C(CCc1cccc(O)c1)N1CCN(Cc2ccccn2)CC1 [Compound V-19, 3-(3-hydroxyphenyl)-1-(4-(pyridin-2-ylmethyl)piperazin-1-yl)propan-1-one]
- IC50 (L-dopa): > 800 µM
- IC50 (L-tyrosine): > 600 µM

Compound: O=C(CCc1cc(O)cc(O)c1)N1CCN(Cc2ccc(F)cc2)CC1 [Compound V-20, 3-(3,5-dihydroxyphenyl)-1-(4-(4-fluorobenzyl)piperazin-1-yl)propan-1-one]
- IC50 (L-dopa): 21.3 ± 0.8 µM
- IC50 (L-tyrosine): 9.1 ± 0.6 µM

Compound: O=C(CCc1cc(O)ccc1O)N1CCN(Cc2ccc(F)cc2)CC1 [Compound V-21, 3-(2,5-dihydroxyphenyl)-1-(4-(4-fluorobenzyl)piperazin-1-yl)propan-1-one]
- IC50 (L-dopa): 21 ± 0.82 µM
- IC50 (L-tyrosine): 8.2 ± 0.4 µM

Compound: O=C(/C=C/c1ccc(O)cc1O)N1CCN(Cc2ccc(F)cc2)CC1 [Compound V-22, (E)-3-(2,4-dihydroxyphenyl)-1-(4-(4-fluorobenzyl)piperazin-1-yl)prop-2-en-1-one]
- IC50 (L-dopa): 0.085 ± 0.016 µM
- IC50 (L-tyrosine): 0.122 ± 0.008 µM

Compound: Cc1ccc(CN2CCN(C(=O)CCc3ccc(O)cc3O)CC2)cc1 [Compound V-23, 3-(2,4-dihydroxyphenyl)-1-(4-(4-methylbenzyl)piperazin-1-yl)propan-1-one]
- IC50 (L-dopa): 0.134 ± 0.008 µM
- IC50 (L-tyrosine): 0.183 ± 0.013 µM

Compound: COc1ccc(CN2CCN(C(=O)CCc3ccc(O)cc3O)CC2)cc1 [Compound V-25, 3-(2,4-dihydroxyphenyl)-1-(4-(4-methoxybenzyl)piperazin-1-yl)propan-1-one]
- IC50 (L-dopa): 0.147 ± 0.013 µM
- IC50 (L-tyrosine): 0.165 ± 0.008 µM

Compound: COc1ccc(CN2CCN(C(=O)/C=C/c3ccc(O)cc3O)CC2)cc1 [Compound V-26, (E)-3-(2,4-dihydroxyphenyl)-1-(4-(4-methoxybenzyl)piperazin-1-yl)prop-2-en-1-one]
- IC50 (L-dopa): 0.02 ± 0.002 µM
- IC50 (L-tyrosine): 0.023 ± 0.002 µM

Compound: CCOc1ccc(CN2CCN(C(=O)CCc3ccc(O)cc3O)CC2)cc1 [Compound V-27, 3-(2,4-dihydroxyphenyl)-1-(4-(4-ethoxybenzyl)piperazin-1-yl)propan-1-one]
- IC50 (L-dopa): 0.596 ± 0.026 µM
- IC50 (L-tyrosine): 0.497 ± 0.07 µM

Compound: CCOc1ccc(CN2CCN(C(=O)/C=C/c3ccc(O)cc3O)CC2)cc1 [Compound V-28, (E)-3-(2,4-dihydroxyphenyl)-1-(4-(4-ethoxybenzyl)piperazin-1-yl)prop-2-en-1-one]
- IC50 (L-dopa): 0.019 ± 0.0002 µM
- IC50 (L-tyrosine): 0.021 ± 0.001 µM

Compound: O=C(CCc1ccc(O)cc1O)N1CCN(Cc2cccc(Cl)c2)CC1 [Compound V-29, 1-(4-(3-chlorobenzyl)piperazin-1-yl)-3-(2,4-dihydroxyphenyl)propan-1-one]
- IC50 (L-dopa): 0.189 ± 0.005 µM
- IC50 (L-tyrosine): 0.216 ± 0.019 µM

Compound: O=C(/C=C/c1ccc(O)cc1O)N1CCN(Cc2cccc(Cl)c2)CC1 [Compound V-30, (E)-1-(4-(3-chlorobenzyl)piperazin-1-yl)-3-(2,4-dihydroxyphenyl)prop-2-en-1-one]
- IC50 (L-dopa): 0.022 ± 0.001 µM
- IC50 (L-tyrosine): 0.021 ± 0.0003 µM

Compound: O=C(CCc1ccc(O)cc1O)N1CCN(Cc2ccc(Cl)cc2)CC1 [Compound V-31, 1-(4-(4-chlorobenzyl)piperazin-1-yl)-3-(2,4-dihydroxyphenyl)propan-1-one]
- IC50 (L-dopa): 0.153 ± 0.011 µM
- IC50 (L-tyrosine): 0.187 ± 0.003 µM

Compound: O=C(/C=C/c1ccc(O)cc1O)N1CCN(Cc2ccc(Cl)cc2)CC1 [Compound V-32, (E)-1-(4-(4-chlorobenzyl)piperazin-1-yl)-3-(2,4-dihydroxyphenyl)prop-2-en-1-one]
- IC50 (L-dopa): 0.021 ± 0.002 µM
- IC50 (L-tyrosine): 0.024 ± 0.002 µM

Compound: N#Cc1ccc(CN2CCN(C(=O)CCc3ccc(O)cc3O)CC2)cc1 [Compound V-33, 4-((4-(3-(2,4-dihydroxyphenyl)propanoyl)piperazin-1-yl)methyl)benzonitrile]
- IC50 (L-dopa): 0.237 ± 0.011 µM
- IC50 (L-tyrosine): 0.299 ± 0.007 µM

Compound: N#Cc1ccc(CN2CCN(C(=O)/C=C/c3ccc(O)cc3O)CC2)cc1 [Compound V-34, (E)-4-((4-(3-(2,4-dihydroxyphenyl)acryloyl)piperazin-1-yl)methyl)benzonitrile]
- IC50 (L-dopa): 0.032 ± 0.004 µM
- IC50 (L-tyrosine): 0.041 ± 0.005 µM

Compound: NC(=O)[C@H](Cc1ccccc1)NC(=O)CCc1cccc(O)c1 [II, (S)-N-(1-amino-1-oxo-3-phenylpropan-2-yl)-3-(3-hydroxyphenyl)propanamide]
- IC50 [1]: > 800 µM
- IC50 [2]: 423 ± 38.3 µM

Compound: NC(=O)[C@H](Cc1ccccc1)NC(=O)c1cccc(O)c1 [III, (S)-N-(1-amino-1-oxo-3-phenylpropan-2-yl)-3-hydroxybenzamide]
- IC50 [1]: > 800 µM
- IC50 [2]: > 800 µM

Compound: O=C(CCc1cccc(O)c1)NC1CCN(Cc2ccccc2)CC1 [IV, N-(1-benzylpiperidin-4-yl)-3-(3-hydroxyphenyl)propanamide]
- IC50 [1]: > 800 µM
- IC50 [2]: 198 ± 7.6 µM

Compound: O=C(O)c1ccc(CN2CCC(C(=O)c3ccccc3)CC2)cc1 [IX, 4-((4-benzoylpiperidin-1-yl)methyl)benzoic acid]
- IC50 [1]: > 800 µM
- IC50 [2]: > 800 µM

Compound: O=C(NCc1ccc(F)cc1)c1cc(O)nc2ccccc12 [VI, N-(4-fluorobenzyl)-2-hydroxyquinoline-4-carboxamide]
- IC50 [1]: > 800 µM
- IC50 [2]: > 800 µM

Compound: COc1cccc(/C=C/C(=O)Nc2n[nH]c3ccccc23)c1 [VII, (E)-N-(1H-indazol-3-yl)-3-(3-methoxyphenyl)acrylamide]
- IC50 [1]: > 800 µM
- IC50 [2]: > 800 µM

Compound: O=C(NCCc1cccc(O)c1)c1cccc2ncccc12 [VIII, N-(3-hydroxyphenethyl)quinoline-5-carboxamide]
- IC50 [1]: > 800 µM
- IC50 [2]: > 800 µM

Compound: Cc1ccccc1CNC(=O)CCc1cccc(O)c1 [X, 3-(3-hydroxyphenyl)-N-(2-methylbenzyl)propanamide]
- IC50 [1]: 462 ± 50.4 µM
- IC50 [2]: 60.9 ± 1.9 µM
